Results as given in patent US20220409617A1, “Drug Formulations and Methods of Treatment for Metabolic Disorders” (The Regents of the University of California, priority 2019, published 2022).

Key:
[1] = system: hepatic lipid accumulation; assay: Hepatic steatosis and lipidomic profiling of liver and quadriceps muscle; format: in vivo, mouse; details: HFD-fed mice
Description: Lipids were extracted from liver and quadriceps tissue using a modified MTBE method (Matyash et al, 2008; Abbott et al, 2013). Briefly, 10 mg/ml of tissue was homogenized in ice-cold 150 mM ammonium acetate using a bead homogenizer (1.4 mm ceramic) kept below 4° C. using liquid nitrogen vapor (Precellys 24 homogenizer with Cryolys cooling unit, Bertin Technologies, Montigny-le-Bretonneux, France). From this, 20 μl of homogenized tissues were added to glass vials containing MTBE and methanol (3:1 v/v, with 0.01% BHT), alongside 10 μl of an internal standard solution containing 10 μM each: phosphatidylcholine (PC) 17:0/17:0, phosphatidylethanolamine (PE) 17:0/17:0, phosphatidylserine (PS) 17:0/17:0, phosphatidylglycerol (PG) 17:0/17:0, lysophosphatidylcholine (LPC) 17:0, lysophosphatidylethanolamine (LPE) 14:0, ceramide (Cer) d18:1/17:0, dihydrosphingomyelin d18:0/12:0, diacylglycerol (DAG) 17:0/17:0, D5-triacylglycerol (TAG) 48:0, and cholesteryl ester (CE) 22:1. Samples were allowed to rotate at 4° C. overnight prior to the addition of 1 volume of ice-cold 150 mM ammonium acetate. Samples were vortexed thoroughly prior to centrifugation (2000×g, 5 min) to enable phase separation. […]
Extracted lipids were analyzed by liquid chromatography-mass spectrometry (LC-MS) using a Dionex Ultimate 3000 LC pump and Q Exactive Plus mass spectrometer equipped with a heated electrospray ionization (HESI) source (Thermo Fisher Scientific). […] Data were acquired in full scan/data-dependent MS2 mode (full scan resolution 70,000 FWHM, max ion injection time 50 ms, scan range m/z 200-1500), with the 10 most abundant ions being subjected to collision-induced dissociation using an isolation window of 1.5 Da and a normalized stepped collision energy of 15/27 eV, with product ions detected at a resolution of 17,500. […]
Lipids were analyzed using MS-DIAL (Tsugawa et al, 2015). Lipids were detected in both positive and negative ionization modes using a minimum peak height of 1×10^4 cps, a MS1 tolerance of 5 ppm and MS2 tolerance of 10 ppm, and a minimum identification score of 50%. […]

[2] = Fasting blood glucose and oral glucose tolerance test in HFD-fed mice; format: in vivo, mouse
Description: Mice were fasted for 6 h prior to blood glucose testing at ZT10. When sphingolipid-like compound 893 treatment was combined with an OGTT, mice were treated at ZT6. Once baseline fasting blood glucose was determined using a handheld blood glucose meter (Prodigy Diabetes Care, Charlotte, N.C.) and a drop of blood collected from a tail vein nick, mice were gavaged with an oral glucose solution (20% w/v in water, 2 g/kg bodyweight) and blood glucose measured in a drop of tail vein blood at 0, 15, 30, 60 and 120 min. The area under the curve was determined using Graphpad Prism software.

SMILES: CCCCCCCCc1ccc([C@H]2CCN[C@@H]2CO)cc1.Cl [compound 893]
- Hepatic steatosis ([1]; 120 mg/kg): eliminated hepatic steatosis
- Liver triglyceride and ceramide levels ([1]; treated for 4 weeks): restored normal triglyceride and ceramide levels in the liver
- Muscle ceramide levels ([1]; treated for 4 weeks, quadriceps): ceramide levels trended lower in muscle
- Fasting glucose and glucose disposal (OGTT) ([2]; 60 mg/kg three days a week for 25 days): intermediate effect
- Fasting glucose and glucose disposal (OGTT) ([2]; 120 mg/kg three days a week for 25 days): normalized both fasting glucose and glucose disposal
